Source: paper PMC10202811 (Nature Medicine, 2023)
Several values for one entry are separate records, joined by “and”; a condition that tells them apart may be missing. Identical values can stand only once.

Key:
[1] = test system: ALK-driven refractory or relapsed neuroblastoma; experiment: Functional imaging response: MIBG Curie score / FDG-PET avidity; assay type: in vivo, human; parameters: key to Symbol to indicate Soft tissue became MIBG non-avid: *: Symbol to indicate Soft tissue became MIBG non-avid; details: for complete resolution of MIBG avidity (CR) in bone and/or soft tissue: patients with BOR of SD/MR/PR
Excerpt: Patients underwent disease staging at baseline, after courses 2 and 4 and then every four courses thereafter. The primary endpoint for response analysis is the BOR, defined as the best response observed before progression or start of another therapy. […] Response was graded according to the NANT response criteria version 2.0 (ref. [26]), modified from the International Neuroblastoma Response Criteria (INRC)[48]. NANT response criteria use three components for assessment of overall response: soft tissue response assessed by anatomical imaging and avidity on MIBG or FDG-PET; bone response assessed by uptake in bone by MIBG or bone involvement on FDG-PET; and bone marrow response assessed by morphology on bilateral aspirates and biopsies. Each response component (soft tissue, bone and bone marrow) are graded as CR, PR, SD and PD. Overall response grading is defined as: CR, if a response of CR in all components that are involved at baseline; PR, if a response of PR or better in all involved components; MR, if a response of PR or better but with at least one involved component as SD and no PD in all involved components; SD, if a response of SD in all involved components; and PD, if a response of PD in at least one involved component. The overall response definitions are identical to overall responses (CR, PR, SD and PD) as defined by the INRC. Response assessment is initially performed by sites and reviewed against source documents by NANT operations. Additional blinded central review of all radiological or pathological data was conducted for patients with overall PR or better and, in addition, radiologic pathological data of all involved sites for patients with MR to assign the final BOR on this study. Response by MIBG was determined using the Curie criteria. RR was determined as the proportion of patients with BOR of CR and PR in each cohort. Based on an international consensus by the National Cancer Institute Clinical Trials Planning Committee to refine tumor site eligibility criteria and evaluation of disease response for early-phase clinical trials in children with high-risk recurrent, refractory and progressive neuroblastoma, we also performed an ad hoc analysis to determine a modified RR that includes the proportion of patients with BOR of CR, PR and MR.

[2] = test system: neuroblastoma-derived xenografts harboring F1174L, F1245C or R1275Q ALK mutations; details: cited from earlier work

C[C@H]1Oc2cc(cnc2N)-c2c(nn(C)c2C#N)CN(C)C(=O)c2ccc(F)cc21 [Lorlatinib, (10R)-7-amino-12-fluoro-2,10,16-trimethyl-15-oxo-10,15,16,17-tetrahydro-2H-8,4-(metheno)pyrazolo[4,3-h][2,5,11]-benzoxadiazacyclotetradecine-3-carbonitrile]
responders achieving MIBG complete responses ([1]; 13 of 27 responders, all cohorts): 48%
MIBG Curie Score % change from baseline ([1]; Cohort A1, individual patient): -87% and -94% and -100% and 600% and 50% and 40% and 33% and -10% and -18% and -70%
Symbol to indicate Soft tissue became MIBG non-avid ([1]; Cohort A1, individual patient): *
MIBG Curie Score % change from baseline ([1]; Cohort A2, individual patient): -4.76% and -25% and -44% and -56% and -67% and -95% and -100%
Symbol to indicate Soft tissue became MIBG non-avid ([1]; Cohort A2, individual patient): *
MIBG Curie Score % change from baseline ([1]; Cohort B2, individual patient): 100% and 56% and 1% and -33% and -73% and -75% and -100%
Symbol to indicate Soft tissue became MIBG non-avid ([1]; Cohort B2, individual patient): *
Curie Score Percent Change ([1]; Patient ID 2): -100
Minimum Curie ([1]; Patient ID 2, Enrollment Curie 5): 0
Curie Score Percent Change ([1]; Patient ID 3): -94.44
Minimum Curie ([1]; Patient ID 3, Enrollment Curie 18): 1
Curie Score Percent Change ([1]; Patient ID 9): -10
Minimum Curie ([1]; Patient ID 9, Enrollment Curie 10): 9
Curie Score Percent Change ([1]; Patient ID 10): 50
Minimum Curie ([1]; Patient ID 10, Enrollment Curie 4): 6
Curie Score Percent Change ([1]; Patient ID 11): -100
Minimum Curie ([1]; Patient ID 11, Enrollment Curie 1): 0
Curie Score Percent Change ([1]; Patient ID 12): 33.33
Minimum Curie ([1]; Patient ID 12, Enrollment Curie 6): 8
Curie Score Percent Change ([1]; Patient ID 17): -86.66
Minimum Curie ([1]; Patient ID 17, Enrollment Curie 15): 2
Curie Score Percent Change ([1]; Patient ID 21): -100
Minimum Curie ([1]; Patient ID 21, Enrollment Curie 3): 0
Curie Score Percent Change ([1]; Patient ID 25): -100
Minimum Curie ([1]; Patient ID 25, Enrollment Curie 2): 0
Curie Score Percent Change ([1]; Patient ID 26): -18.18
Minimum Curie ([1]; Patient ID 26, Enrollment Curie 11): 9
Curie Score Percent Change ([1]; Patient ID 30): 40
Minimum Curie ([1]; Patient ID 30, Enrollment Curie 5): 7
Curie Score Percent Change ([1]; Patient ID 31): -100
Minimum Curie ([1]; Patient ID 31, Enrollment Curie 3): 0
Curie Score Percent Change ([1]; Patient ID 32): 600
Minimum Curie ([1]; Patient ID 32, Enrollment Curie 2): 14
Curie Score Percent Change ([1]; Patient ID 38): -100
Minimum Curie ([1]; Patient ID 38, Enrollment Curie 3): 0
Curie Score Percent Change ([1]; Patient ID 40): -70
Minimum Curie ([1]; Patient ID 40, Enrollment Curie 10): 3
complete resolution of MIBG avidity (CR) in bone and/or soft tissue ([1]; A1, five of eight): 63%
complete resolution of MIBG avidity (CR) in bone and/or soft tissue ([1]; A2, three of ten): 30%
complete resolution of MIBG avidity (CR) in bone and/or soft tissue ([1]; B2, one of four): 25%
complete resolution of metabolic activity in soft tissue lesions by MIBG/FDG-PET ([1]; ten of 22 patients with avid soft tissue lesions and BOR of SD/MR/PR): 45%
anti-tumor doses lower than crizotinib ([2]; ALK-driven neuroblastoma pre-clinical models in vivo): 10–30 fold
effect on xenograft tumors ([2]; crizotinib-resistant and sensitive xenografts): complete tumor regression
